Test results taken from patent publication US20100048575A1, “NOVEL TETRACYCLIC INHIBITORS OF CYSTEINE PROTEASES, THE PHARMACEUTICAL COMPOSITIONS THEREOF AND THEIR THERAPEUTIC APPLICATIONS” (priority 2006, published 2010).

How the values were obtained:
[1] = system: HCT116 colon cancer cells; test: HCT116 cell viability and proliferation assay (MTS); type: cell-based; settings: Homo sapiens, HCT-116, 72 hours, mean of 3 independent experiments, read-out: HCT116 GI50 D3
Experimental: HCT116 colon cancer cells were obtained from ATCC (American Type Culture Collection), and maintained in Mc Coy's 5A medium containing 10% FBS, 3 mM glutamine and 1% penicillin/streptomycin. Cells were incubated at 37° C. in a humidified atmosphere containing 5% CO2.
Cell viability was assayed using the MTS technique in 96-well culture plates (CellTiter 96® Aqueous Non-Radioactive Cell Proliferation Assay, Promega) according to the manufacturer's instructions. MTS (3-(4,5-dimethylthiazol-2-yl)-5-(3-carboxymethoxyphenyl)-2-(4-sulfophenyl)-2H-tetrazolium) is a MTT-derived tetrazolium that is reduced in metabolically active cells into a soluble, cell-permeant formazan. The amount of formazan, detected by its absorbance at 492 nm is proportional to the number of living, metabolically active cells.
10^3 HCT116 cells were seeded per well. 24 hours later, the medium was changed and the cells treated in triplicate with the following concentrations of each compound: 10 μM-3.33 μM-1.11 μM-370 nM-123 nM-41 nM-14 nM and 5 nM. The compounds were diluted in 100% DMSO, whose final concentration on cells was kept at 0.5%.
Cells were incubated with the compounds for 72 hours, and their viability then assayed by the addition of MTS for 2 hours. Absorbance at 492 nm was measured directly from the 96-well culture plates. GI50 (Growth Inhibition 50) concentrations for each compound were calculated using a sigmoidal variable slope fit (Prism 4.0, Graphpad Softwares). Values represent mean of 3 independent experiments.

Cathepsin B = Cathepsin B (Homo sapiens, UniProt P07858); test: Cathepsin B activity assay (z-RR-AMC); type: biochemical; settings: 36 μM z-RR-AMC, 3.6 nM enzyme, 30 min pre-incubation, 60 min at 37° C., sigmoidal fit; read-out: cathepB (inhibition of cysteine protease activity)
Experimental: Cathepsin B was diluted in Cathepsin B buffer (20 mM Tris HCl pH 6.8; 1 mM EDTA; 1 mM DTT). Compounds stocks (100 mM) were stored at −20° C. in DMSO. Compounds were tested at the following final concentrations: 100 μM; 33.3 μM; 11.1 μM; 3.7 μM; 1.23 μM; 412 nM; 137 nM; 45.7 nM; 15.2 nM; 5 nM. Reactions were performed as duplicates in Black LJL 96 well plates (HE microplates; Molecular Devices; 20 μl final reaction volume). The substrate concentration for cathepsin B specificity assay was 36 μM (z-RR-AMC; Calbiochem). The concentration of the enzyme (Cathepsin B) in specificity assays was 3.6 nM. The concentrations were determined in order to perform specificity assays under initial velocities at fixed substrate concentration. Compounds were pre-incubated with enzymes for 30 minutes at 25° C. Reactions were initiated by addition of substrate to the plates containing the enzymes (+/−compounds) diluted in assay buffer. Reactions were incubated for 60 minutes at 37° C. Reactions were stopped by adding acetic acid (100 mM final). Readings were performed on a Pherastar Fluorescent Reader (BMG). δ Emission 380 nm; δ Excitation=460 nm. Data (mean values +/−standard deviation) were analyzed as % of control (no compound) and plotted as percentage versus the Log of the compound concentration using GraphPad (Prism). Data were fitted to a sigmoidal model (variable slope).

Uch-L3 = target: T1, Uch-L3 (Homo sapiens, UniProt P15374); test: UCH-L3 activity assay (Ub-AMC); type: biochemical; settings: 400 nM Ub-AMC, 13 pM enzyme, 30 min pre-incubation, 60 min at 37° C., sigmoidal fit; read-out: Uch-L3 (inhibition of cysteine protease activity)
T1 sequence (P15374 1-230): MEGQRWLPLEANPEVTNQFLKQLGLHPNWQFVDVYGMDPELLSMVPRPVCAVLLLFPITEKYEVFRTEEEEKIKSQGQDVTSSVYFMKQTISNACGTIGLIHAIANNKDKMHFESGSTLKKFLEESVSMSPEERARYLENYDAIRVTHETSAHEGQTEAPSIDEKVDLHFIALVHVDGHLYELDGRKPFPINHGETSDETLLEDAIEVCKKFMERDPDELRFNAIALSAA
Experimental: Uch-L3 was diluted in USP buffer (50 mM Tris HCl; 0.5 mM EDTA; 5 mM DTT; 0.01% Triton X-100; Bovine Serum Albumin 0.05 mg.ml^−1 pH7.6). Compounds stocks (100 mM) were stored at −20° C. in DMSO. Compounds were tested at the following final concentrations: 100 μM; 33.3 μM; 11.1 μM; 3.7 μM; 1.23 μM; 412 nM; 137 nM; 45.7 nM, 15.2 nM; 5 nM.
Reactions were performed as duplicates in Black LJL 96 well plates (HE microplates; Molecular Devices; 20 μl final reaction volume). The substrate concentration for Uch-L3 was 400 nM Ub-AMC (Boston Biochem). The concentration of the enzyme (Uch-L3) in specificity assays was 13 pM. The concentrations were determined in order to perform specificity assays under initial velocities at fixed substrate concentration. Compounds were pre-incubated with enzymes for 30 minutes at 25° C. Reactions were initiated by addition of substrate to the plates containing the enzymes (+/−compounds) diluted in assay buffer.
Reactions were incubated for 60 minutes at 37° C. Reactions were stopped by adding acetic acid (100 mM final). Readings were performed on a Pherastar Fluorescent Reader (BMG). δ Emission 380 nm; 6 Excitation=460 nm. Data (mean values +/−standard deviation) were analyzed as % of control (no compound) and plotted as percentage versus the Log of the compound concentration using GraphPad (Prism). Data were fitted to a sigmoidal model (variable slope).

Row | GI50 [1] [nM] | IC50 (Cathepsin B) [nM] | IC50 (Uch-L3) [nM] | Compound
1 | 1400 | 2600 | 410 | CON=C1c2ccccc2-c2nn3c(C)nnc3nc21 (mixture of isomers) [5a, 3-Methyl-1,2,3a,4,10-pentaaza-cyclopenta[b]fluoren-9-one O-methyl-oxime]
2 | 273 | 2100 | 48 | COCCON=C1c2ccccc2-c2nn3nnnc3nc21 (mixture of isomers) [8b, 1,2,3,3a, 4,10-Hexaaza-cyclopenta[b]fluoren-9-one O-(2-methoxy-ethyl)-oxime]
3 | 265 | 3800 | 121 | c1ccc(OCCCON=C2c3ccccc3-c3nn4nnnc4nc32)cc1 (mixture of isomers) [8c, 1,2,3,3a,4,10-Hexaaza-cyclopenta[b]fluoren-9-one O-(3-phenoxy-propyl)-oxime]
4 | 3360 | – | – | CCc1nnc2nc3c(nn12)-c1ccccc1C3=NOC (mixture of isomers) [10b, 3-Ethyl-1,2,3a,4,10-pentaaza-cyclopenta[b]fluoren-9-one O-methyl-oxime]
5 | 3930 | – | – | CCON=C1c2ccccc2-c2nn3c(CC)nnc3nc21 (mixture of isomers) [10d, 3-Ethyl-1,2,3a,4,10-pentaaza-cyclopenta[b]fluoren-9-one O-ethyl-oxime]
6 | 1910 | – | – | CCc1nnc2nc3c(nn12)-c1ccccc1C3=NOCc1ccccc1 (mixture of isomers) [10h, 3-Ethyl-1,2,3a,4,10-pentaaza-cyclopenta[b]fluoren-9-one O-benzyl-oxime]
7 | 96 | 300 | 32 | C=CCON=C1c2ccccc2-c2nn3nnnc3nc21 (mixture of isomers) [compound 6, 1,2,3,3a,4,10-hexaaza-cyclopenta[b]fluoren-9-one O-allyl-oxime]

Continued, compound first:

Row | Compound | GI50 [1] [nM] | IC50 (Cathepsin B) [nM] | IC50 (Uch-L3) [nM]
8 | C=CCON=C1c2ccccc2-c2nn3c(C)nnc3nc21 (mixture of isomers) [5b, 3-Methyl-1,2,3a,4,10-pentaaza-cyclopenta[b]fluoren-9-one O-allyl-oxime] | 1640 | – | 272
9 | C=CCON=C1c2ccccc2-c2nn3c(CCCC)nnc3nc21 (mixture of isomers) [5d, 3-Butyl-1,2,3a,4,10-pentaaza-cyclopenta[b]fluoren-9-one O-allyl-oxime] | 1010 | 6700 | 250
10 | CCCCCCCCCCON=C1c2ccccc2-c2nn3nnnc3nc21 (mixture of isomers) [8a, 1,2,3,3a, 4,10-Hexaaza-cyclopenta[b]fluoren-9-one O-decyl-oxime] | 398 | 15800 | 2000
11 | C=CCON=C1c2ccccc2-c2nn3c(CC)nnc3nc21 (mixture of isomers) [10f, 3-Ethyl-1,2,3a,4,10-pentaaza-cyclopenta[b]fluoren-9-one O-allyl-oxime] | 2100 | – | 235
12 | ON=C1c2ccccc2-c2nn3nnnc3nc21 (mixture of isomers) [compound 7, 1,2,3,3a,4,10-hexaaza-cyclopenta[b]fluoren-9-one oxime] | 363 | 890 | 57
